Measured values from the NIST ThermoML archive (doi:10.1016/j.jct.2003.12.005).

Legend:
[1] = 101.3 kPa, Liquid
[2] = xn = mol fraction of the nth substance listed; conditions: 101.3 kPa, Liquid

CCC(C)O (stereo not given) [butan-2-ol]
[1]
Conditions	mass density [kg/m3]	speed of sound [m/s]	viscosity [mPa·s]
293.15 K	806.8	1230	3.623
298.15 K	802.7	1212	2.995
303.15 K	798.5	1194	2.493

CCC(C)O (stereo not given) [butan-2-ol] + CCCCCCCC
[2]
Conditions	mass density, 293.15 K [kg/m3]	mass density, 298.15 K [kg/m3]	mass density, 303.15 K [kg/m3]	speed of sound, 293.15 K [m/s]	speed of sound, 298.15 K [m/s]	speed of sound, 303.15 K [m/s]	viscosity, 293.15 K [mPa·s]	viscosity, 298.15 K [mPa·s]	viscosity, 303.15 K [mPa·s]
x1 = 0.0481	704.6	700.5	696.4	1190	1169	1148	0.541	0.508	0.478
x1 = 0.0974	707.2	703.1	698.9	1187	1167	1146	0.554	0.519	0.488
x1 = 0.1984	713.3	709.2	704.9	1184	1163	1143	0.582	0.544	0.511
x1 = 0.289	719.4	715.2	711	1182	1161	1141	0.624	0.579	0.541
x1 = 0.3964	727.7	723.5	719.1	1181	1161	1141	0.697	0.644	0.599
x1 = 0.4923	736.2	731.9	727.5	1183	1162	1142	0.78	0.713	0.645
x1 = 0.5931	746.5	742.1	737.8	1187	1166	1146	0.927	0.84	0.761
x1 = 0.6922	758.1	753.8	749.4	1193	1173	1153	1.162	1.031	0.919
x1 = 0.7987	772.5	768.2	763.9	1202	1182	1163	1.574	1.361	1.191
x1 = 0.8988	788.3	784	779.7	1214	1195	1176	2.267	1.932	1.662
x1 = 0.9495	797.2	793	788.8	1222	1203	1185	2.809	2.353	1.99
x1 = 1	806.8	802.7	798.5	1230	1212	1194	3.623	2.995	2.493

CCC(C)O (stereo not given) [butan-2-ol] + CCCCCCCCCC
[2], x1 = 1
Conditions	mass density [kg/m3]	speed of sound [m/s]	viscosity [mPa·s]
293.15 K	806.8	1230	3.623
298.15 K	802.7	1212	2.995
303.15 K	798.5	1194	2.493

CCC(C)O (stereo not given) [butan-2-ol] + CCCCCCCCCCCC
[2], x1 = 1
Conditions	mass density [kg/m3]	speed of sound [m/s]	viscosity [mPa·s]
293.15 K	806.8	1230	3.623
298.15 K	802.7	1212	2.995
303.15 K	798.5	1194	2.493

CCCCCCCCCC [decane] + CCC(C)O
[2]
Conditions	mass density, 293.15 K [kg/m3]	mass density, 298.15 K [kg/m3]	mass density, 303.15 K [kg/m3]	speed of sound, 293.15 K [m/s]	speed of sound, 298.15 K [m/s]	speed of sound, 303.15 K [m/s]	viscosity, 293.15 K [mPa·s]	viscosity, 298.15 K [mPa·s]	viscosity, 303.15 K [mPa·s]
x2 = 0	729.9	726.1	722.3	1254	1235	1215	0.911	0.845	0.787
x2 = 0.0488	730.9	727.1	723.2	1250	1230	1210	0.9	0.833	0.774
x2 = 0.0992	732.4	728.5	724.6	1246	1226	1207	0.905	0.836	0.776
x2 = 0.2038	736.2	732.2	728.2	1240	1220	1201	0.926	0.854	0.791
x2 = 0.3041	740.4	736.4	732.4	1235	1215	1195	0.956	0.88	0.812
x2 = 0.3972	745	741	736.9	1230	1211	1191	1.008	0.922	0.847
x2 = 0.498	751	746.9	742.8	1227	1207	1187	1.09	0.989	0.901
x2 = 0.5972	758.1	754	749.8	1224	1204	1185	1.222	1.091	0.983
x2 = 0.703	767.5	763.3	759	1223	1203	1184	1.454	1.286	1.142
x2 = 0.8001	777.7	773.5	769.2	1224	1204	1185	1.787	1.548	1.351
x2 = 0.9002	790.5	786.4	782.1	1225	1207	1188	2.389	2.026	1.736
x2 = 0.9497	798.2	794	789.8	1228	1209	1191	2.879	2.418	2.047

CCCCCCCCCCCC [dodecane] + CCC(C)O
[2]
Conditions	mass density, 293.15 K [kg/m3]	mass density, 298.15 K [kg/m3]	mass density, 303.15 K [kg/m3]	speed of sound, 293.15 K [m/s]	speed of sound, 298.15 K [m/s]	speed of sound, 303.15 K [m/s]	viscosity, 293.15 K [mPa·s]	viscosity, 298.15 K [mPa·s]	viscosity, 303.15 K [mPa·s]
x2 = 0	748.5	744.9	741.3	1297	1278	1259	1.454	1.327	1.219
x2 = 0.0486	749.3	745.6	741.9	1293	1274	1255	1.44	1.314	1.204
x2 = 0.0976	750.2	746.4	742.7	1289	1270	1251	1.431	1.305	1.194
x2 = 0.2046	752.5	748.7	744.9	1282	1263	1243	1.429	1.299	1.188
x2 = 0.2956	754.9	751.1	747.2	1276	1256	1237	1.432	1.297	1.179
x2 = 0.3959	758.1	754.2	750.3	1268	1249	1230	1.457	1.316	1.196
x2 = 0.4979	762.2	758.3	754.3	1261	1242	1222	1.503	1.351	1.22
x2 = 0.598	767.2	763.2	759.1	1255	1235	1216	1.603	1.425	1.276
x2 = 0.7021	773.9	769.8	765.6	1248	1229	1209	1.798	1.576	1.392
x2 = 0.8008	781.9	777.8	773.6	1242	1223	1204	2.068	1.785	1.566
x2 = 0.9002	792.7	788.5	784.3	1236	1217	1199	2.576	2.184	1.866
x2 = 0.9504	799.1	794.9	790.7	1233	1215	1196	2.989	2.508	2.122

CCCCCCCC [octane] + CCC(C)O
[2], x2 = 0
Conditions	mass density [kg/m3]	speed of sound [m/s]	viscosity [mPa·s]
293.15 K	702.6	1193	0.538
298.15 K	698.5	1173	0.506
303.15 K	694.5	1152	0.478
